According to patent US11207409B2, “X-RAY psoralen activated cancer therapy (X-PACT) with associated treatments” (priority 2017, dated 2021):

Test system: murine tumor cell lines (breast-4T1, glioma-CT2A, and sarcoma KP15B8)
Experimental: Guava Annexin V flow cell cytometry was used to quantify cytotoxicity in 3 murine tumor cell lines (breast-4T1, glioma-CT2A, and sarcoma KP15B8). In-vitro X-PACT studies were conducted on cells prepared in the following manner. Cells were incubated in appropriate growing media and buffers before being trypsinized and plated evenly onto twelve (12) well plates for 24 hours. About 20 minutes prior to X-PACT irradiation, the wells of each plate were exposed to the following combinations of additives: (1) control ˜cells only with no additives, (2) UVADEX only, (3) phosphors only, (4) UVADEX+phosphors. […] The plates were then irradiated with x-rays by placing the plate at a known distance from the x-ray source (e.g., 50 cm). […]
Two primary flow cytometry metrics were used to evaluate the X-PACT treatments, both determined at 48h after X-PACT treatment. […] The first metric is metabolically viable cell count (or cell viability) determined from the number of whole cells per well as determined using forward scattering (FSC). […] (All wells on a given plate receive the same dose.) The second metric is Annexin V (+) signal, which is the fraction of the metabolically viable cells which expressed a positive Annexin V signal as determined by flow cell cytometry, and include any cells advancing toward early or late apoptotic cell death. […]

| Substance | % Viability (1-Toxicity) [%] |
| --- | --- |
| 3Ca3(PO4)2•Ca(Fl,Cl)2:Sb^3+,Mn^2+ [GTP 4300] | 70 |
| Zn2SiO4:Mn | 75 |
